Tests used:
[1] = biological target: T1, Caspase-7 (Homo sapiens, UniProt P55210); assay: Inhibitory concentration against caspase-7
T1 sequence (P55210 whole entry): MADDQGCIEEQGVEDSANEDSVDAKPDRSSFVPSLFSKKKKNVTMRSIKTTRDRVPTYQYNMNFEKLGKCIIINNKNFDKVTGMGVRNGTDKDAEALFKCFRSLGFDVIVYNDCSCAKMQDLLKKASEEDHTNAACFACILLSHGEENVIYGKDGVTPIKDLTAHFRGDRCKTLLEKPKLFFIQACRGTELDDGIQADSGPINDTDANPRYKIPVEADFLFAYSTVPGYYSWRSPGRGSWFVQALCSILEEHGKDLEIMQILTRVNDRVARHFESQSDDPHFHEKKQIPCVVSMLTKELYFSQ

[2] = biological target: T1, Caspase-7; assay: Inhibitory concentration of compound required against Caspase-7 compared to acylated dipeptides
[3] = biological target: T2, Caspase-3 (Homo sapiens, UniProt P42574); assay: Inhibitory concentration of compound required against Caspase-3 compared to acylated dipeptides
T2 sequence (P42574 whole entry): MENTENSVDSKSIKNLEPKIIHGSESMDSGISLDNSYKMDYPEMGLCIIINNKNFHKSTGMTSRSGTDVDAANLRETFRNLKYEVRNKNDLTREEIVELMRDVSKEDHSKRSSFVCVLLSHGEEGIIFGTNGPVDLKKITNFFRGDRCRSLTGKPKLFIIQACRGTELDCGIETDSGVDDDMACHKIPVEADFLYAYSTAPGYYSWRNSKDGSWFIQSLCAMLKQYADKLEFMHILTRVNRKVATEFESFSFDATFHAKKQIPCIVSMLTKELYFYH

[4] = biological target: T3, Caspase-6 (Homo sapiens, UniProt P55212); assay: Inhibitory concentration required against caspase-6
T3 sequence (P55212 whole entry): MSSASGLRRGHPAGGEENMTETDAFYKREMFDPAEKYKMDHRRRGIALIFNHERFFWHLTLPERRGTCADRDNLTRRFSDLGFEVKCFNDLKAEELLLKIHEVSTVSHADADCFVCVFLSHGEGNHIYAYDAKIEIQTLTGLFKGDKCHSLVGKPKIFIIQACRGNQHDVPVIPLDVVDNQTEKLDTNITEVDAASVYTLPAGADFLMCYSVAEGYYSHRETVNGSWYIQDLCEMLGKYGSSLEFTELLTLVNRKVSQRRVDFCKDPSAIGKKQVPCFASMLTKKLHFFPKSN

[5] = biological target: T3, Caspase-6; assay: Inhibitory concentration of compound required against Caspase-6 compared to acylated dipeptides
[6] = biological target: T4, Caspase-8 (Homo sapiens, UniProt Q14790); assay: Inhibitory concentration of compound required against Caspase-8 compared to acylated dipeptides
[7] = biological target: T4, Caspase-8; assay: Inhibitory concentration against caspase-8
[8] = biological target: T2, Caspase-3; assay: Inhibitory concentration against caspase-3
[9] = biological target: Caspase-1 (Mus musculus) (UniProt P29452)
[10] = biological target: Caspase-1 (Mus musculus) (UniProt P29452); assay: Inhibitory concentration of compound required against Caspase-1 compared to acylated dipeptides

Sequence of Caspase-1 (Mus musculus) (P29452 whole entry, looked up): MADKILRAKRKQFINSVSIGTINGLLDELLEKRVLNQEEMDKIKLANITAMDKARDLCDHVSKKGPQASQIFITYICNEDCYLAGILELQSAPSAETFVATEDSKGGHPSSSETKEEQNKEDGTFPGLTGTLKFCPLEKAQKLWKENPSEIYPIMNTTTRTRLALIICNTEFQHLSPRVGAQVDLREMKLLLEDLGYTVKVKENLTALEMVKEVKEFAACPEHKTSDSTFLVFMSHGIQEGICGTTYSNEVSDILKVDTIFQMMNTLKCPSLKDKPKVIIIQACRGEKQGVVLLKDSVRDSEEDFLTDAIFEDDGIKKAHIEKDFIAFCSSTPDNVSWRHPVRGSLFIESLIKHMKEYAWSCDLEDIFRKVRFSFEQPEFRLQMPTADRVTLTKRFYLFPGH
T4 sequence (Q14790 217-374 limits assumed): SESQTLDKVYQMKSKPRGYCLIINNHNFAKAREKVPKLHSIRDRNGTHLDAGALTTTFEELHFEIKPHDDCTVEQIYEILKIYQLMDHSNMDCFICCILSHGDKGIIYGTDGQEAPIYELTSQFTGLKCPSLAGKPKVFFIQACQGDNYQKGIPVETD
T4 sequence (Q14790 385-479 limits assumed): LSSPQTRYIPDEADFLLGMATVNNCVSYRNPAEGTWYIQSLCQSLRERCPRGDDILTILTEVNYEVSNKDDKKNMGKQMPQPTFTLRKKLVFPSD

Row | Compound | IC50 [1] [µM] | IC50 [2] [µM] | IC50 [3] [µM] | IC50 [4] [µM] | IC50 [5] [µM] | IC50 [6] [µM] | IC50 [7] [µM] | IC50 [8] [µM] | IC50 [9] [µM] | IC50 [10] [µM]
1 | CC(C)C[C@H](NC(=O)COc1ccc2ccccc2c1)C(=O)N[C@H]1CC(=O)OC1O (some centres undefined) | 8.87 | 8.87 | 0.94 | 18.6 | 18.6 | 10 | > 10 | 0.944 | 10 | 10
2 | CC(C)C[C@H](NC(=O)COc1c(Cl)cc(Cl)c2ccccc12)C(=O)N[C@H]1CC(=O)OC1O (some centres undefined) | 3.61 | – | – | 21.4 | – | – | 3.04 | 0.357 | 0.141 | –
3 | CC(C)C[C@H](NC(=O)COc1ccc(-c2ccccc2)cc1)C(=O)N[C@H]1CC(=O)OC1O (some centres undefined) | 12 | – | – | 20.5 | – | – | 7.53 | 0.763 | 1.9 | –
4 | Cc1ccc2ccccc2c1OCC(=O)N[C@@H](CC(C)C)C(=O)N[C@H]1CC(=O)OC1O (some centres undefined) | 4.16 | – | – | 32.4 | – | – | 4.14 | 0.375 | 0.843 | –
5 | CC(=O)N[C@@H](C(=O)O)C(=O)N[C@@H](CCC(=O)O)C(=O)N[C@H](C(=O)N[C@H]1CC(=O)OC1O)C(C)C (some centres undefined) | – | 0.01 | 0.0035 | – | 0.01 | 0.08 | – | – | – | 0.05
6 | CC(C)C[C@H](NC(=O)Cc1ccc(-c2ccccc2)cc1)C(=O)N[C@H]1CC(=O)OC1O (some centres undefined) | – | > 10 | – | > 10 | – | – | > 10 | 5.06 | 7.43 | –

The next lines start with the values.

Row | IC50 [1] [µM] | IC50 [2] [µM] | IC50 [3] [µM] | IC50 [4] [µM] | IC50 [5] [µM] | IC50 [6] [µM] | IC50 [7] [µM] | IC50 [8] [µM] | IC50 [9] [µM] | IC50 [10] [µM] | Compound
7 | – | 0.01 | 0.0023 | – | – | 0.03 | – | – | – | 0.0065 | CC(C)C[C@H](NC(=O)[C@H](CCC(=O)O)NC(=O)OCc1ccccc1)C(=O)N[C@H]1CC(=O)OC1O (some centres undefined)
8 | – | 0.68 | 0.137 | – | 2.53 | 8.7 | – | – | – | 0.043 | CC(C)C[C@H](NC(=O)[C@H](Cc1ccccc1)NC(=O)OCc1ccccc1)C(=O)N[C@H]1CC(=O)OC1O (some centres undefined)
9 | 21.9 | – | – | 14 | – | – | 50 | 3.47 | 18.8 | – | CC(C)C[C@@H](NC(=O)OCc1ccccc1)C(=O)C[C@H]1CC(=O)OC1O (some centres undefined)

Reference: ChEMBL document CHEMBL1134914, “Acyl dipeptides as reversible caspase inhibitors. Part 1: initial lead optimization” (Bioorg Med Chem Lett, 2002)
